Reference: US11026958B2, “Substituted 6-membered aryl or heteroaryl allosteric modulators of nicotinic acetylcholine receptors” (Merck Sharp & Dohme Corp., priority 2016, dated 2021)
Like-named read-outs stand apart in the source and are kept apart here.

Target: human α7 nAChR (Homo sapiens (Human), UniProt P36544)
Assay: Automated patch-clamp electrophysiology functional assay (Assay A), IonFlux HT
Assay type: cell-based
Conditions: HEK cell line stably expressing human RIC-3 and human α7, whole-cell population patch, 40 μM acetylcholine
Description: The α7 nAChR positive allosteric modulator (PAM) activity of the present compounds may be tested using assays known in the art. The α7 nAChR PAMs described herein have activities in an automated patch-clamp electrophysiology functional assay as described in the examples. The assay was performed using the IonFlux HT in a whole-cell, population patch configuration. See Golden et al. Assay Drug Dev. Technol. (2011) 9:608-619. The compounds were assessed for their ability to modulate the function of the human α7 nAChR stably expressed in a HEK cell line both in the presence, and in the absence of the natural α7 agonist acetylcholine. By performing a series of such measurements at different concentrations, the effective concentration of the α7 nAChR PAMs (EC50) was determined. See Spencer et al. Assay Drug Dev. Technol. (2012) 10:313-324.
Automated patch-clamp electrophysiology was performed using the IonFlux HT (Fluxion Biosciences Inc., San Francisco, Calif.) in the whole-cell, population patch configuration. Test compounds were assessed for their ability to modulate the function of the α7 nicotinic acetylcholine receptor both in the presence, and in the absence of the natural α7 agonist acetylcholine. A HEK cell line stably expressing both human RIC-3 and human α7 (PrecisION hnAChR α7/RIC-3, Eurofins Pharma, St. Charles, Mo.) was cultured in 175 cm^2 triple-layer tissue culture flasks to no more than 90% confluency in DMEM/F-12 growth media supplemented with 10% heat-inactivated fetal bovine serum, 1% non-essential amino acids, 0.625 μg/mL Puromycin, and 400 μg/mL Geneticin. Immediately prior to assay, cells were detached by first aspirating growth media, rinsing with Dulbecco's phosphate buffered saline, and then adding 10 mL of Accutase (Innovative Cell Technologies, San Diego, Calif.) to the flask and then incubating at 37° C. for 5 minutes. Detached cells were then recovered by the addition of 40 mL of CHO-serum-free media supplemented with 25 mM HEPES, and rocked gently in a 50 mL conical tube for 20 minutes prior to patch-clamp assay. After recovery, cells were pelleted by centrifugation at 1,000 RPM for 1 minute in a compact bench top centrifuge; recovery media was aspirated and cells were resuspended in external recording solution (150 mM NaCl, 5 mM KCl, 2 mM CaCl2, 1 mM MgCl2, 10 mM HEPES, 12 mM dextrose) to a density of 5.0×10^6 cells/mL. The cell suspension was added to the cell inlet wells on an IonFlux HT population patch plate which had previously been rinsed and primed with deionized H2O. Test compounds were serially diluted in DMSO and then resuspended to the final test concentration in external recording solution, with, or without 40 μM acetylcholine added to the external recording solution; test compounds were then transferred to the IonFlux HT population patch plate. Internal recording solution (110 mM TrisPO4, 28 mM TrisBase, 0.1 mM CaCl2, 2 mM MgCl2, 11 mM EGTA, 4 mM MgATP) was added to the internal recording solution inlet wells on the IonFlux HT patch plate previously loaded with cells and test compounds, and the plate loaded into the IonFlux HT instrument. A protocol was executed on the IonFlux HT to trap the cells, break into the cells, and establish the whole-cell recording configuration; cells were voltage-clamped at a holding potential of −60 mV for the duration of the experiment, all experiments were conducted at room temperature, and the IonFlux HT injection pressure was 8 psi for solution applications. Upon establishing the whole-cell configuration, external recording solution was perfused into the recording chambers for 120 seconds and then 40 μM acetylcholine was applied for 1 second and immediately washed off with external recording solution for 60 seconds. The 40 μM acetylcholine-evoked α7 current served as the current response to which subsequent test compound effects, in the presence, or in the absence of 40 μM acetylcholine would be quantified relative to. […]

Chain of human α7 nAChR (P36544 23-502): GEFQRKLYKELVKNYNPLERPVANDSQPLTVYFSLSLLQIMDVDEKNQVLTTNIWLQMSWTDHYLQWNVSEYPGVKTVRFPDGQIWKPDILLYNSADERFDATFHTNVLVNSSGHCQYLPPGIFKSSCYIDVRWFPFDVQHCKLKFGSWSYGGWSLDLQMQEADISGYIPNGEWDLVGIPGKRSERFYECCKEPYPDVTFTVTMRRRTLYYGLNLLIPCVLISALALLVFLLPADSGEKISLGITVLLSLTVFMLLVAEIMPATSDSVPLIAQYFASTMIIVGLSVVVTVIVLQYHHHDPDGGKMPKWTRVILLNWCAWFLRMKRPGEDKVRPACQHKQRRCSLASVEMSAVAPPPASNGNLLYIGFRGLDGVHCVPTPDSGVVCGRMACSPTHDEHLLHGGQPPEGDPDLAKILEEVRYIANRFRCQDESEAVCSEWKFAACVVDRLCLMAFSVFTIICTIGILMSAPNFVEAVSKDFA

Compound	EC50 (read-out: α7 nAChR EC50) [µM]	EC50 (read-out: α7 nAChR Potency) [µM]
CC(C)c1cccnc1C1CC1c1ccc(S(N)(=O)=O)cc1 (racemic) [Example A7, 4-{trans-2-[3-(Propan-2-yl)pyridin-2-yl]cyclopropyl}benzenesulfonamide]	2.4	0.5 to 5
CC(C)c1ccc(C2CC2c2ccc(S(N)(=O)=O)cc2)nc1 (racemic) [Example A6, 4-{trans-2-[5-(Propan-2-yl)pyridin-2-yl]cyclopropyl}benzenesulfonamide]	0.7	0.5 to 5
4-(trans-2-{2-[Methyl(phenyl)amino]pyrimidin-4-yl}cyclopropyl)benzenesulfonamide [Example D6]		0.5 to 5
CC(C)c1cccc(C2CC2c2ccc(S(N)(=O)=O)cc2)n1 (single isomer, unassigned) [Example A1, 4-{trans-2-[6-(Propan-2-yl)pyridin-2-yl]cyclopropyl}benzenesulfonamide]		0.5 to 5
CC(C)c1ccnc(C2CC2c2ccc(S(N)(=O)=O)cc2)c1 (racemic) [Example A11, 4-{trans-2-[4-(Propan-2-yl)pyridin-2-yl]cyclopropyl}benzenesulfonamide]	0.46	0.1 to 0.5
CC(C)c1ccnc(C2CC2c2ccc(S(N)(=O)=O)cc2)n1 (single isomer, unassigned) [Example 5, 4-{trans-2-[4-(Propan-2-yl)pyrimidin-2-yl]cyclopropyl}benzenesulfonamide]	0.41	0.1 to 0.5
4-{trans-2-[2-(Benzylamino)pyrimidin-4-yl]cyclopropyl}benzenesulfonamide [Example D3]		0.5 to 5

More lines, now with the values ahead:

EC50 (read-out: α7 nAChR EC50) [µM]	EC50 (read-out: α7 nAChR Potency) [µM]	Compound
0.28	0.1 to 0.5	CC(C)c1cnc(C2CC2c2ccc(S(N)(=O)=O)cc2)nc1 (single isomer, unassigned) [Example C1, 4-{trans-2-[5-(Propan-2-yl)pyrimidin-2-yl]cyclopropyl}benzenesulfonamide]
	0.5 to 5	CC(C)c1cnc(C2CC2c2ccc(S(N)(=O)=O)cc2)nc1 (racemic) [Example C2, 4-{trans-2-[5-(Propan-2-yl)pyrimidin-2-yl]cyclopropyl}benzenesulfonamide]
5.2	5 to 50	NS(=O)(=O)c1ccc(C2CC2c2cccc(-n3cncn3)c2)cc1 (racemic) [Example F2, 4-{trans-2-[3-(1H-1,2,4-Triazol-1-yl)phenyl]cyclopropyl}benzenesulfonamide]
